Data on two molecules can be found in patent US9308210B2, “Method for modulating canonical Wnt pathway using folate and inositol” (University of South Florida, priority 2009, dated 2016).

Counter-ions that a name gives are not always drawn.

In data set [1] the test system is C57BL/6 mouse embryos. The data set is described as follows: Morphometric measurements, resorptions and lethality of mouse embryos after Li or HCy exposure, FA rescue. Type of data set: in vivo. Conditions: for Resorptions (percent): hydrochloride. The source says:
To determine whether the results in the avian system would extend to the mammalian system, the inventors conducted studies in the mouse embryo. All mice were maintained according to protocols approved by the Institutional Animal Care and Use Committee at the University of South Florida. The C57BL/6 mouse strain (Jackson Laboratories, Bar Harbor, Me.) was used throughout the study. E0.5 was defined as the morning when the vaginal sperm plug was detected. Timed pregnant mice were randomly allocated to receive a single dose of 100 μl of 6.25 mg/ml Li chloride, as determined previously (Chen et al., 2008), 100 μl of 75 μM HCy, or 100 μl of 6.25 mg/ml sodium chloride (control group); all treatments were given intraperitoneally (i.p). On E15.5, the utero-placental circulation of the pregnant mice, and the central and peripheral circulations of the embryos were examined non-invasively in utero using Doppler ultrasonography (Gui et al., 1996; Linask and Huhta, 2000). Sixty-eight embryos were exposed to Li, 59 to HCy and 42 to physiological saline.
An HCy concentration of 75 μM, used for maternal exposure, was determined empirically using different doses of HCy (i.e. 150, 75, 50 and 15 μM). The minimal teratogenic dose was determined to be 75 μM. […] The single i.p. injection of HCy at E6.75 produced a high number of valve defects (66%), as well as resorptions (46%). […] Because not all embryos within litters are at exactly the same stage of development, the variability of effects seen with either Li or HCy probably reflects the differences in developmental stage.
Following echo monitoring on E15.5, placental weight and morphometric measurements of crown-rump length and body weight were obtained. […] HCy administered on E6.75 induced valve defects in 66.1% of the embryos (39/59 embryos). Some litters were allowed to develop to E18.5.

Data set [2] has as its system Medium-Chain Acyl CoA Dehydrogenase (MCAD) protein. As to the kind of experiment: Immunostaining of MCAD protein in E15.5 hearts. Type of data set: in vivo, mouse. To be noted: E15.5 heart; versus control. Here is the method:
Li+-, and HCys-, and control, NaCl-exposed, embryos were fixed in 4% paraformaldehyde in PBS, paraffin embedded, and sectioned. Sections were immunostained with MCAD antibodies (Sigma, St. Louis, Mo.) for the protein product of Acadm gene expression. Primary antibody localization was visualized with Cy3-secondary antibodies. Localization of gene and protein expression was analyzed with a Nikon Optiphot II phase microscope (Nikon Instruments, Inc., Melville, N.Y.). Digitized images were obtained with a Nikon DS-L2 Camera unit.

Data set [3] relates to C57BL/6 mouse embryos. Conditions: in vivo.
The conditions of data set [4]: seven years after FA fortification; Quebec, Canada; cited from earlier work.
In data set [5] the test system is HTR-8/SVneo cells. As to the kind of experiment: In vitro wound assay of human trophoblast cell migration. The data set is classed as cell-based. To be noted: HCy exposure experiments; scrape wound. An excerpt:
In previous studies by the inventors analyzing the effects of lithium and the metabolite homocysteine (HCy) on early heart development, the results were similar. Both factors inhibited Wnt/β-catenin-mediated gene expression during induction stages of cardiogenesis. […] Folate protects the embryo from these adverse effects (Han et al., 2009). It was also noted that normal placental development was adversely affected by Li and HCy. A human trophoblast cell line, HTR-8/SVneo cells, was used to determine whether Li or HCy affect the migration of these cells in vitro and whether FA or FA/myo-inositol would protect the cells from adverse effects of the two cardiac teratogens. HCy exposure experiments were conducted. […] The wound edges are depicted by a white line in B. In panel A, it can be seen that the wound area is smaller. Administration of a combination of FA/myo-inositol, FA alone or myo-inositol alone, enhanced the expression of NMHC-IIB and FN to facilitate cell migration.

As for `N[C@H]1CCSC1=O` [HCy, L-homocysteine thiolactone hydrochloride], in data set [1] (E15.5 after exposure on E6.75), the “Body Weight” value is 0.35 g, the CRL came to 13 mm and the “Placenta Weight” value was 0.11 g. In data set [1] (acute single dose of HCy at E5.5), this molecule displayed an embryonic lethality of 79%. Moreover, in data set [1] (exposure on E6.75), the “Resorptions (embryos/total)” value is on record as 27/59 and the “Resorptions (percent)” value came out at 46%. Besides, in data set [1] (exposure on E6.75, listed as HCys), the “Resorptions (percent)” value stood at 45.7%. Besides, in data set [1] (single exposure on E6.75, E15.5), the “placental weight, crown-rump length and body weight versus control embryos” value is “significantly decreased”. For the same molecule, the MCAD protein entry in data set [2] is listed as “increased”.

For the molecule `Nc1nc2ncc(CNc3ccc(C(=O)N[C@@H](CCC(=O)O)C(=O)O)cc3)nc2c(=O)[nH]1` [FA, folic acid], in data set [3], the DAPI amounted to 1.82, the DVPI is 1.04, the “E/A Ratio” value is 0.28 and the HR turned out to be 191 bpm. In data set [3], this molecule displayed an ICT % of 7.32%, an IRT % of 12.82%, an MPI of 0.50 and an OF of 34.30 cm/s. In data set [3], this molecule had an RR of 314 ms and a UAPI of 1.71. Also, in data set [4], the “yearly decrease in the prevalence of severe heart defects” value was 6%. Also, the “expression of NMHC-IIB and FN” value in data set [5] was “enhanced”.
